In brackets after ≈: the same amount, converted by molar mass. Where a name gives a salt, the structure may show the parent alone.
Test system: not listed separately
Assay: Aqueous kinetic solubility assay
Type: physicochemical
Details: PBS pH 7.4
Protocol: The aqueous kinetic solubility was determined from a 10 mM CH3CN stock solution of the test compound in PBS at pH 7.4. The study was performed by the incubation of an aliquot of 10 mM CH3CN stock solution in PBS (pH 7.4) at a target concentration of 250 μM. The incubation was carried out under shaking at 25 °C for 1 h, followed by centrifugation at 21 100 × g for 30 min. The supernatant was analyzed by UPLC/MS for the quantification of the dissolved compound (in μM) by UV at a specific wavelength (215 nm). […] The UPLC/MS analyses were performed on a Waters Acquity UPLC/MS system consisting of SQDMS equipped with an ESI interface and a PDA detector. The PDA range was 210–400 nm. ESI in positive mode was used in the mass scan range 100–650 Da. The analyses were run on an Acquity UPLC BEH C18 column (50 × 2.1 mm ID, particle size 1.7 μm) with a VanGuard BEH C18 pre-column (5 × 2.1 mm ID, particle size 1.7 μm), using 10 mM NH4OAc in H2O at pH 5 adjusted with AcOH (A) and 10 mM NH4OAc in CH3CN/H2O (95:5) at pH 5 (B) as the mobile phase. The values are the mean of at least two independent experiments performed in two technical replicates.

Compound | solubility at 1 h
CN1CCC(c2cn(C(=O)NCCCCc3ccccc3)c(=O)o2)CC1 [Compound 12y, 5-(1-Methyl-4-piperidyl)-2-oxo-N-(4-phenylbutyl)oxazole-3-carboxamide] | 248 µM (≈ 88.6 µg/mL)

Test system: rat AC (rAC)
Assay: not given
Details: cited from earlier work

Compound | IC50
CCCCCCNC(=O)n1cc(Cl)c(=O)[nH]c1=O [Compound 1a] | 67 nM
CCCCCCNC(=O)n1cc(C(F)(F)F)c(=O)[nH]c1=O [Compound 1b] | 12 nM
CCCCCCNC(=O)n1cc(F)c(=O)n(C(=O)OCC(C)C)c1=O [Compound 1c] | 16 nM
CCCCCCNC(=O)n1cc(F)c(=O)[nH]c1=O [carmofur] | 29 nM

Test system: hAC
Assay: not given
Details: cited from earlier work

Compound | IC50
O=C(NCCCCc1ccccc1)n1cnc2ccccc21 [Compound 3a] | 2.5 nM
COc1nc2ccccc2n1C(=O)NCCCCc1ccccc1 [Compound 3b] | 13.9 nM
O=C(NCc1ccccc1)n1cnc2ccccc21 [Compound 3c] | 22.5 nM
Cc1ccc(CNC(=O)n2cnc3ccccc32)cc1 [Compound 3d] | 14.8 nM
O=C(NCCCCc1ccccc1)n1c(=O)oc2ccccc21 [Compound 4a] | 64 nM
O=C(NCCCCc1ccccc1)n1c(=O)oc2cc(-c3ccc(F)cc3)ccc21 [Compound 4b] | 79 nM
O=C(NCCCCc1ccccc1)n1c(=O)oc2cc(Cl)ccc21 [Compound 4c] | 33 nM
CC(C)CNC(=O)n1c(=O)oc2cc(C3CCN(C)CC3)ccc21 [Compound 4d] | 166 nM

Target: T1, hAC (Homo sapiens, UniProt Q13510)
T1 sequence (Q13510 22-395): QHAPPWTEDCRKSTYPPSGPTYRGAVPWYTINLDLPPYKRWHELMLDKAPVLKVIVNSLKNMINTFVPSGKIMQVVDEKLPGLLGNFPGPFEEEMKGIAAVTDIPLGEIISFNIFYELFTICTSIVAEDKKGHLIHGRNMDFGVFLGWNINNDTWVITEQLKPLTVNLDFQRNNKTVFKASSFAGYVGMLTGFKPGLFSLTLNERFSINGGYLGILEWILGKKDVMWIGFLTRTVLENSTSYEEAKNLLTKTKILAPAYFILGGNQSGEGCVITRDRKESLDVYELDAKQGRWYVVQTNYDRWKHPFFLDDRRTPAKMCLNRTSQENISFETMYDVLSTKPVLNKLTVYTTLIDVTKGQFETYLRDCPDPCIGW
Assay: Fluorogenic hAC assay (hAC-enriched HEK293 lysate)
Type: biochemical
Set-up: expressed in transfected cells; lysosome-enriched lysate
Details: concentrations tested 1 and 10 μM where stated
Description: HEK293 cells stably expressing hAC (HEK293-hAC) were generated in our laboratory using a protocol, as previously described.[30] Briefly, hAC (variant 1 coding sequence, NM_177924) cDNA was purchased from Open Biosystems (clone ID 3923451) and subcloned in the mammalian expression vector pCDNA3.1, containing the neomycin resistance gene. HEK293 cells were transfected with the hAC-pCDNA3.1 construct using a JetPEI reagent (Polyplus Transfection, Illkirch-Graffenstaden, France) and following the manufacturer’s instructions. A stable cell line was generated by selection with G418 (1 mg/mL), and cell clones were derived by limited dilution plating. HEK293-hAC were grown in Dulbecco’s modified Eagle medium (DMEM) containing 10% fetal bovine serum (FBS), 1% glutamine, 1 mM sodium pyruvate, and 500 μg/mL G418. Cells were harvested and pellets were stored at −80 °C until lysosomal-enriched lysate preparation. Cells were suspended in 20 mM Tris HCl (pH 7.5) with 0.32 M sucrose, sonicated, and centrifuged at 800 × g for 30 min at 4 °C. Supernatants were then centrifuged at 12 000 × g for 30 min at 4 °C. Pellets were re-suspended in PBS (pH 7.4) and subjected to three freeze–thaw cycles at −80 °C. The suspension was finally centrifuged at 105 000 × g for 1 h at 4 °C, and protein concentration was measured in the supernatant with a bicinchoninic acid based protein assay. This hAC-enriched preparation allowed us to further optimize the enzymatic assay and to use small amounts of lysate (2 μg/well) at the 5 μM substrate (Rbm14-12) around its KM (KM = 5.0 μM).
The assay was performed in Optiplate 96-wells black plates, with each reaction well containing a mixture of 25 mM NaOAc buffer (pH 4.5) and a fixed amount of protein (2 μg) in a volume of 85 μL. After 10 min of pre-incubation with the test compounds (diluted 20× from DMSO stock solutions at different concentrations), the fluorogenic probe was added (diluted 40× from EtOH stock solution, final concentration 5 μM). After 3 h incubation at 37 °C, reactions were stopped with 50 μL of MeOH and 100 μL of a 2.5 mg/mL NaIO4 fresh solution in 100 mM glycine/NaOH buffer (pH 10.6). The plates were further incubated for 2 h at 37 °C in the dark and fluorescence intensities were measured at excitation/emission wavelengths of 355/460 nm. Negative control samples consisted of the same incubation mixture in the absence of protein-enriched extracts. Data were plotted as a function of compound concentrations. IC50 values were calculated by nonlinear regression analysis using GraphPad Prism 5 (GraphPad Software Inc., CA, USA) applying a standard slope curve fitting. The reported IC50 values are the mean of at least three independent experiments performed in three technical replicates.

Compound | hAC inhibition, result in words
CCC(C)NC(=O)n1cc(-c2ccccc2)oc1=O (racemic) [Compound 12f, (±) 2-Oxo-5-phenyl-N-s-butyl-oxazole-3-carboxamide] | not active up to 10 μM
COCCCNC(=O)n1cc(-c2ccccc2)oc1=O [Compound 12d, N-(3-Methoxypropyl)-2-oxo-5-phenyl-oxazole-3-carboxamide] | complete loss in potency
CC(C)CNC(=O)n1cc(-c2ccc(F)c(C3CCN(C)CC3)c2)oc1=O [Compound 25f, 5-[4-Fluoro-3-(1-methyl-4-piperidyl)phenyl]-N-isobutyl-2-oxo-oxazole-3-carboxamide] | complete loss in potency
CC(C)CNC(=O)n1cc(-c2ccc(F)cc2C2CCN(C)CC2)oc1=O [Compound 32c, 5-[4-Fluoro-2-(1-methyl-4-piperidyl)phenyl]-N-isobutyl-2-oxo-oxazole-3-carboxamide Hydrochloride] | complete loss in potency

Same assay, conditions: fluorogenic substrate Rbm14-12 5 μM, pH 4.5; mean of at least three experiments

Compound | hAC IC50 (μM)±SD
O=C(NCCCCc1ccccc1)n1cc(-c2ccc(F)cc2)oc1=O [Compound 12j, 5-(4-Fluorophenyl)-2-oxo-N-(4-phenylbutyl)oxazole-3-carboxamide] | submicromolar

Same assay, conditions: fluorogenic substrate Rbm14-12 5 μM, pH 4.5; mean of at least three experiments; read-out: hAC IC50 (μM)±SD

Compound | IC50
O=C(NCCCCc1ccccc1)n1c(-c2ccccc2)coc1=O [Compound 8a, 2-Oxo-4-phenyl-N-(4-phenylbutyl)oxazole-3-carboxamide] | 0.007 ± 0.001 µM

Same assay, conditions: supplementary CSV

Compound | hAC, IC50 (micromicrolar)
CCC(C)NC(=O)n1cc(-c2ccccc2)oc1=O (racemic) [Compound 12f, (±) 2-Oxo-5-phenyl-N-s-butyl-oxazole-3-carboxamide] | not active up to 10 micromolar
O=c1[nH]cc(-c2ccccc2)o1 [Compound 11a, 5-Phenyl-3H-oxazol-2-one] | not active up to 10 micromolar
COCCCNC(=O)n1cc(-c2ccccc2)oc1=O [Compound 12d, N-(3-Methoxypropyl)-2-oxo-5-phenyl-oxazole-3-carboxamide] | not active up to 10 micromolar
O=C(Nc1ccccc1)n1cc(-c2ccccc2)oc1=O [Compound 12g, 2-Oxo-N,5-diphenyl-oxazole-3-carboxamide] | not active up to 10 micromolar
CN(CCCCc1ccccc1)C(=O)n1cc(-c2ccccc2)oc1=O [Compound 13a, N-Methyl-2-oxo-5-phenyl-N-(4-phenylbutyl)oxazole-3-carboxamide] | not active up to 10 micromolar
O=C(OCCCCc1ccccc1)n1cc(-c2ccccc2)oc1=O [Compound 13b, 4-Phenylbutyl-2-oxo-5-phenyl-oxazole-3-carboxylate] | not active up to 10 micromolar
O=C(CCCCCc1ccccc1)n1cc(-c2ccccc2)oc1=O [Compound 13c, 5-Phenyl-3-(6-phenylhexanoyl)oxazol-2-one] | not active up to 10 micromolar
O=C(NCCCCc1ccccc1)N1C(=O)OC[C@@H]1c1ccccc1 [Compound 15a, (4S)-(+)-2-Oxo-4-phenyl-N-(4-phenylbutyl)oxazolidine-3-carboxamide] | not active up to 10 micromolar
O=C(NCCCCc1ccccc1)N1C(=O)OC[C@H]1c1ccccc1 [Compound 15b, (4R)-(−)-2-Oxo-4-phenyl-N-(4-phenylbutyl)oxazolidine-3-carboxamide] | not active up to 10 micromolar
O=C(NCCCCc1ccccc1)N1C[C@H](c2ccccc2)OC1=O [Compound 18a, (5S)-(−)-2-Oxo-5-phenyl-N-(4-phenylbutyl)oxazolidine-3-carboxamide] | not active up to 10 micromolar
O=C(NCCCCc1ccccc1)N1C[C@@H](c2ccccc2)OC1=O [Compound 18b, (5R)-(+)-2-Oxo-5-phenyl-N-(4-phenylbutyl)oxazolidine-3-carboxamide] | not active up to 10 micromolar
CC(C)CNC(=O)n1cc(-c2ccc(F)c(C3CCN(C)CC3)c2)oc1=O [Compound 25f, 5-[4-Fluoro-3-(1-methyl-4-piperidyl)phenyl]-N-isobutyl-2-oxo-oxazole-3-carboxamide] | not active up to 10 micromolar
CN1CCC(c2cc(F)ccc2-c2c[nH]c(=O)o2)CC1 [Compound 31c, 5-[4-Fluoro-2-(1-methyl-4-piperidyl)phenyl]-3H-oxazol-2-one] | not active up to 10 micromolar
CC(C)CNC(=O)n1cc(-c2ccc(F)cc2C2CCN(C)CC2)oc1=O [Compound 32c, 5-[4-Fluoro-2-(1-methyl-4-piperidyl)phenyl]-N-isobutyl-2-oxo-oxazole-3-carboxamide Hydrochloride] | not active up to 10 micromolar

Target: T1, hAC
Assay: Michaelis–Menten analysis of hAC
Type: biochemical
Set-up: expressed in transfected cells; lysosome-enriched lysate
Details: 12a 25 nM
Protocol: Assay conditions for the kinetic studies were the same as those described for the fluorogenic hAC assay. The enzyme-enriched lysate (2 μg) was incubated with the following concentrations of substrate Rbm14-12: 0.25, 0.5, 1, 2.5, 5, 10, 12.5, 15 μM. Compound 12a was used at a final concentration of 25 and 100 nM. Initial velocities (V0) were determined and automatically fitted to the Michaelis–Menten equation to obtain kinetic parameters (KM and Vmax). The graph is representative of two independent experiments, each performed in three technical replicates. Graphs and data analysis were performed using GraphPad Prism 5 software (GraphPad Software Inc., CA, USA).

Compound | hAC Vmax
O=C(NCCCCc1ccccc1)n1cc(-c2ccccc2)oc1=O [Compound 12a, 2-Oxo-5-phenyl-N-(4-phenylbutyl)oxazole-3-carboxamide] | 18201 M/h

Same assay, conditions: 12a 100 nM

Compound | hAC Vmax
O=C(NCCCCc1ccccc1)n1cc(-c2ccccc2)oc1=O [Compound 12a, 2-Oxo-5-phenyl-N-(4-phenylbutyl)oxazole-3-carboxamide] | 12016 M/h

Same assay, conditions: hAC-enriched lysates, in words

Compound | effect on Michaelis–Menten constant (KM) | effect on maximal catalytic velocity of AC (Vmax)
O=C(NCCCCc1ccccc1)n1cc(-c2ccccc2)oc1=O [Compound 12a, 2-Oxo-5-phenyl-N-(4-phenylbutyl)oxazole-3-carboxamide] | without influencing | concentration-dependent reduction
